In patent US20250332173A1, “COMPOUNDS AND METHODS FOR MODULATING NUCLEIC ACID SPLICING” (REMIX THERAPEUTICS INC., priority 2021, published 2025):
Where two headings read alike, the source gives them in different places.

System: Target C
Test: RT-qPCR splicing assay panel, Target C canonical junction (CJ) mRNA
Format: cell-based, human
Conditions: Homo sapiens
In short: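 Exposure: 24 h, 37 °C, 11-point 3-fold dilutions from 10 uM final, DMSO at or below 0.25%, in A673 or K562 cells. Detection: cell-lysate RT-qPCR of canonical junction mRNA relative to GAPDH, GUSB or PPIA.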

[1] = canonical junction qPCR panel, Table 5, read-out: Target C (decrease in CJ mRNA levels, IC50)
[2] = Table 5 panel, canonical junction qPCR, compound concentration having 50% response in CJ decrease, read-out: Target C IC50 (decrease in CJ mRNA levels)

Row | IC50 [1] | IC50 [2] | SMILES
1 | 100 to 1000 nM | – | Cc1cn2cc(-c3ccc4c(=O)n(C5CCNCC5)ccc4n3)cc(C#N)c2n1 [Compound 1297]
2 | > 10000 nM | – | Cc1c(O)c(-c2ncc3c(=O)n([C@@H]4C[C@H]5C[C@@H]4CN5)ccc3n2)cc2cn(C)nc12 [Compound 1445, 6-[(1R,4R,5R)-2-azabicyclo[2.2.1]heptan-5-yl]-2(6-hydroxy-2,7-dimethyl-indazol-5-yl)pyrido[4,3-d]pyrimidin-5-one]
3 | 1000 to 10000 nM | – | Cc1c(O)c(-c2ncc3c(=O)n(C45CCC(N)(CC4)C5)ccc3n2)cc2cn(C)nc12 [Compound 1428]
4 | 1000 to 10000 nM | – | Cc1cn2nc(-c3ccc4c(=O)n([C@@H]5CCNC5)ccc4n3)cc(C)c2n1 [Compound 1438, 2-(2,8-dimethylimidazo[1,2-b]pyridazin-6-yl)-6-[(3R)-pyrrolidin-3-yl]-1,6-naphthyridin-5-one]
5 | 100 to 1000 nM | – | Cn1cc2cc(-c3ccc4c(=O)n([C@H]5CCNC5)ccc4n3)c(O)c(F)c2n1 [Compound 1451, 2-(7-fluoro-6-hydroxy-2-methyl-indazol-5-yl)-6-[(3S)-pyrrolidin-3-yl]-1,6-naphthyridin-5-one]
6 | 100 to 1000 nM | – | Cn1cc2cc(-c3ccc4c(=O)n(C5CCNC6(CC6)C5)ccc4n3)c(O)cc2n1 (stereo not drawn) [Compound 1242]
7 | 1000 to 10000 nM | – | Cc1cn2cc(-c3ccc4c(=O)n(C5CCNCC5)ccc4n3)cc(C)c2n1 [Compound 1241, 2-(2,8-dimethylimidazo[1,2-a]pyridin-6-yl)-6-(piperidin-4-yl)-1,6-naphthyridin-5(6H)-one]
8 | 1000 to 10000 nM | – | Cc1c(O)c(-c2ncc3c(=O)n([C@@H]4CCN[C@H](C)C4)ccc3n2)cc2cn(C)nc12 [Compound 1434, 2-(6-hydroxy-2,7-dimethyl-indazol-5-yl)-6-(2-methyl-4-piperidyl)pyrido[4,3-d]pyrimidin-5-one]
9 | 1000 to 10000 nM | – | Cc1cn2cc(-c3ncc4c(=O)n([C@@H]5CCNC6(CC6)C5)ccc4n3)cc(F)c2n1 [Compound 1457, 6-[(7R)-4-azaspiro[2.5]octan-7-yl]-2-(8-fluoro-2-methyl-imidazo[1,2-a]pyridin-6-yl)pyrido[4,3-d]pyrimidin-5-one]
10 | 1000 to 10000 nM | – | Cc1c(O)c(-c2ncc3c(=O)n(C4C[C@@H](C)N[C@H](C)C4)ccc3n2)cc2cn(C)nc12 (stereo partly drawn) [Compound 1454, 6-[(2R,6R)-2,6-dimethyl-4-piperidyl]-2-(6-hydroxy-2,7-dimethyl-indazol-5-yl)pyrido[4,3-d]pyrimidin-5-one]
11 | 1000 to 10000 nM | – | Cn1cc2cc(-c3ccc4c(=O)n([C@@H]5CCNC6(CC6)C5)ccc4n3)c(O)cc2n1 [Compound 1246]
12 | > 10000 nM | – | Cc1cn2cc(-c3ccc4c(=O)n(C5CCNC5)ccc4n3)cc(F)c2n1 (stereo not drawn) [Compound 1299]
13 | 1000 to 10000 nM | – | Cc1c(O)c(-c2ncc3c(=O)n(C4C[C@H](C)N[C@@H](C)C4)ccc3n2)cc2cn(C)nc12 (stereo partly drawn) [Compound 1455, 6-[(2S,6S)-2,6-dimethyl-4-piperidyl]-2-(6-hydroxy-2,7-dimethyl-indazol-5-yl)pyrido[4,3-d]pyrimidin-5-one]
14 | 1000 to 10000 nM | – | Cc1cn2cc(-c3cc(O)c4c(=O)n(C5CCNCC5)ccc4n3)cc(F)c2n1 [Compound 1448]
15 | > 10000 nM | – | Cc1c(O)c(-c2ncc3c(=O)n([C@@H]4C[C@H]5C[C@@H]4CN5)ccc3n2)cc2cn(C)nc12 (stereo in doubt) [Compound 1446, 6-[(1R,4R,5R)-2-azabicyclo[2.2.1]heptan-5-yl]-2-(6-hydroxy-2,7-dimethyl-indazol-5-yl)pyrido[4,3-d]pyrimidin-5-one]
16 | > 10000 nM | – | Cc1cn2cc(-c3ccc4c(=O)n(C5CCNCC5)ccc4n3)nc(C)c2n1 [Compound 1238, 2-(2,8-dimethylimidazo[1,2-a]pyrazin-6-yl)-6-(piperidin-4-yl)-1,6-naphthyridin-5(6H)-one]
17 | > 10000 nM | – | Cc1cn2cc(-c3ccc4c(=O)n(C5CCNCC5)ccc4n3)c(O)cc2n1 [Compound 1240]
18 | 1000 to 10000 nM | – | Cc1c(O)c(-c2ncc3c(=O)n(C4CCC(N)CC4)ccc3n2)cc2cn(C)nc12 (stereo not drawn) [Compound 1300, 6-((1s,4s)-4-aminocyclohexyl)-2-(6-hydroxy-2,7-dimethyl-2H-indazol-5-yl)pyrido[4,3-d]pyrimidin-5(6H)-one]
19 | 1000 to 10000 nM | – | Cc1c(O)c(-c2ncc3c(=O)n(C4CCN(C)CC4)ccc3n2)cc2cn(C)nc12 [Compound 1304]
20 | 100 to 1000 nM | – | Cc1c(O)c(-c2ncc3c(=O)n(C4C[C@H]5C[C@@H]4CN5)ccc3n2)cc2cn(C)nc12 (stereo in doubt) [Compound 1444, 6-[(1R,4R,5R)-2-azabicyclo[2.2.1]heptan-5-yl]-2-(6-hydroxy-2,7-dimethyl-indazol-5-yl)pyrido[4,3-d]pyrimidin-5-one]
21 | > 10000 nM | – | Cc1c(O)c(-c2ccc3c(=O)n([C@@H]4CCNC4)ccc3n2)cc2cn(C)nc12 [Compound 1450, 2-(6-hydroxy-2,7-dimethyl-indazol-5-yl)-6-[(3R)-pyrrolidin-3-yl]-1,6-naphthyridin-5-one]
22 | 100 to 1000 nM | – | Cc1c(O)c(-c2ccc3c(=O)n(C4CCNCC4)cc(C)c3n2)cc2cn(C)nc12 [Compound 1284]
23 | > 10000 nM | – | Cc1c(O)c(-c2ccc3c(=O)n([C@H]4CCNC4)ccc3n2)cc2cn(C)nc12 [Compound 1449, 2-(6-hydroxy-2,7-dimethyl-indazol-5-yl)-6-[(3S)-pyrrolidin-3-yl]-1,6-naphthyridin-5-one]
24 | > 10000 nM | – | Cc1c(O)c(-c2ncc3c(=O)n(C4CCNC4)ccc3n2)cc2cn(C)nc12 (stereo in doubt) [Compound 1440, (6S)-2-(6-hydroxy-2,7-dimethyl-indazol-5-yl)-6-pyrrolidin-3-yl-pyrido[4,3-d]pyrimidin-5-one]
25 | > 10000 nM | – | Cc1c(O)c(-c2ncc3c(=O)n(C4CNC4)ccc3n2)cc2cn(C)nc12 [Compound 1305, 6-(azetidin-3-yl)-2-(6-hydroxy-2,7-dimethyl-indazol-5-yl)pyrido[4,3-d]pyrimidin-5-one]

Further lines, the compound ahead of its results:

Row | SMILES | IC50 [1] | IC50 [2]
26 | Cn1cc2cc(-c3ccc4c(=O)n(C5CCNCC5)ccc4n3)cc(F)c2n1 [Compound 1231] | 100 to 1000 nM | –
27 | Cn1cc2cc(-c3ncc4c(=O)n(C5CCNCC5)ccc4n3)c(O)cc2n1 [Compound 1211] | – | 1000 to 10000 nM
28 | CN1CCC(Nc2ccc3c(=O)n(-c4ccc5cn(C)nc5c4)cnc3c2)CC1 [Compound 203] | – | > 10000 nM
29 | Cc1cn2cc(-c3cc4ccn(C5CCNC5)c(=O)c4cn3)cc(C#N)c2n1 (stereo not drawn) [Compound 1214] | – | > 10000 nM
30 | Cn1cc2cc(-c3ncc4c(=O)n(C5CCNCC5)ccc4n3)cc(F)c2n1 [Compound 1212, 2-(7-fluoro-2-methyl-2H-indazol-5-yl)-6-(piperidin-4-yl)pyrido[4,3-d]pyrimidin-5(6H)-one] | – | 100 to 1000 nM
31 | Cc1c(O)c(-c2ncc3c(=O)n(C4CCNC4)ccc3n2)cc2cn(C)nc12 (stereo not drawn) [Compound 1222] | – | > 10000 nM
32 | Cc1cn2cc(-c3ncc4c(=O)n([C@@H]5CCNC5)ccc4n3)cc(F)c2n1 [Compound 1228] | – | > 10000 nM
33 | Cc1cn2cc(-c3cc4ccn(C5CCNCC5)c(=O)c4cn3)nc(C)c2n1 [Compound 1205, 6-(2,8-dimethylimidazo[1,2-a]pyrazin-6-yl)-2-(piperidin-4-yl)-2,7-naphthyridin-1(2H)-one] | – | 100 to 1000 nM
34 | Cc1cc(-c2cc3ccn(C4CCNCC4)c(=O)c3cn2)cc2cn(C)nc12 [Compound 1204, 6-(2,7-dimethyl-2H-indazol-5-yl)-2-(piperidin-4-yl)-2,7-naphthyridin-1(2H)-one] | – | 1000 to 10000 nM
35 | Cc1cn2nc(-c3ccc4c(c3F)CCN(C3CCNCC3)C4=O)cc(C)c2n1 [Compound 188] | – | 1000 to 10000 nM
36 | Cc1cc(-c2cc3ccn(C4CCN(C5COC5)CC4)c(=O)c3cn2)cc2cn(C)nc12 [Compound 1209, 6-(2,7-dimethyl-2H-indazol-5-yl)-2-(1-(oxetan-3-yl)piperidin-4-yl)-2,7-naphthyridin-1(2H)-one-1] | – | 100 to 1000 nM
37 | Cc1cc(-c2cc3ccn(C4CCN(C)CC4)c(=O)c3cn2)cc2cn(C)nc12 [Compound 1206, 6-(2,7-dimethyl-2H-indazol-5-yl)-2-(1-methylpiperidin-4-yl)-2,7-naphthyridin-1(2H)-one] | – | > 10000 nM
38 | Cn1cc2cc(-c3ccc4c(=O)n(C5CCNCC5)cnc4c3)ccc2n1 [Compound 182] | – | 1000 to 10000 nM
39 | Cc1c(O)c(-c2ncc3c(=O)n([C@@H]4C[C@H]5CC[C@@H](C4)N5)ccc3n2)cc2cn(C)nc12 [Compound 1429, 6-[(1S,5R)-8-azabicyclo[3.2.1]octan-3-yl]-2-(6-hydroxy-2,7-dimethyl-indazol-5-yl)pyrido[4,3-d]pyrimidin-5-one] | 1000 to 10000 nM | –
40 | Cc1cn2cc(-c3ncc4c(=O)n(C5CCNC5)ccc4n3)cc(C#N)c2n1 (stereo not drawn) [Compound 1221] | – | 100 to 1000 nM
41 | Cc1cc(-c2cc3ccn(C4CCN(C5CC5)CC4)c(=O)c3cn2)cc2cn(C)nc12 [Compound 1208, 2-(1-cyclopropylpiperidin-4-yl)-6-(2,7-dimethyl-2H-indazol-5-yl)-2,7-naphthyridin-1(2H)-one] | – | > 10000 nM
42 | Cc1cn2cc(-c3ncc4c(=O)n(C5CCNC5)ccc4n3)c(O)c(C)c2n1 (stereo not drawn) [Compound 1227] | – | > 10000 nM
43 | Cc1cn2cc(-c3ncc4c(=O)n(C5CCNC5)ccc4n3)cc(F)c2n1 (stereo not drawn) [Compound 1215] | – | > 10000 nM
44 | Cc1cn2nc(-c3cc4ccn(C5CCNCC5)c(=O)c4cn3)cc(C)c2n1 [Compound 1198, 6-(2,8-dimethylimidazo[1,2-b]pyridazin-6-yl)-2-(piperidin-4-yl)-2,7-naphthyridin-1(2H)-one] | – | 100 to 1000 nM
45 | Cn1cc2cc(-c3cc4ccn(C5CCNCC5)c(=O)c4cn3)c(O)c(F)c2n1 [Compound 1199] | – | 1000 to 10000 nM
46 | CCN1CCC(n2ccc3cc(-c4cc(C)c5nn(C)cc5c4)ncc3c2=O)CC1 [Compound 1207, 6-(2,7-dimethyl-2H-indazol-5-yl)-2-(1-ethylpiperidin-4-yl)-2,7-naphthyridin-1(2H)-one] | – | 1000 to 10000 nM
47 | Cn1cc2cc(-c3ncc4c(=O)n(C5CCNC5)ccc4n3)c(O)c(F)c2n1 (stereo not drawn) [Compound 1223] | – | 1000 to 10000 nM
48 | Cc1cn2cc(-c3ncc4c(=O)n([C@H]5CCNC5)ccc4n3)cc(F)c2n1 [Compound 1220] | – | 100 to 1000 nM
